Measurements reported in patent US20140343143A1, “Use of highly concentrated compositions of selected n-3 fatty acids for the treatment of central nervous system disturbances” (priority 2004, published 2014).

Key:
[1] = tested on: pentylenetetrazol-induced major motor seizures; assay: Pentylenetetrazol (100 mg/kg i.p.)-induced seizures in rats (Example 4); assay type: in vivo, rat
Procedure: At the end, all the groups were treated with 100 mg/kg i.p. of pentylenetetrazol, and the animals underwent the following control exams: 1) length of latency period to the first major motor seizures (tonic-clonic contractions of the limbs, trunk and head; falling; saliva and blood discharge from the mouth); 2) number of rats responding with major motor seizures (or protected from seizure); 3) mean duration of the major motor seizure (MMS); 4) number of rats presenting minor clonic contractions (MCC), such as a sudden flexion of the forelegs or extension of the rear legs; 5) number of rats who died within 20 minutes or 5 hours after pentylenetetrazol injection.

[2] = tested on: seizures in study strain rats; assay: Preliminary determination of the epileptogenic ED50 of pentylenetetrazol; assay type: in vivo; conditions: Rattus norvegicus, ip, read-out: ED50 (dose effective on 50% of rats) of the epileptogenic agent, i.p., preliminary experiment
[3] = tested on: amphetamine-induced hyperactivity and risk-taking behaviour; assay: Amphetamine-induced behavioural model of mania, open field test in rats; conditions: sodium valproate 20 mg/kg i.p., short times, preliminary experiment
[4] = daily i.p. 2 weeks: n-3 50 mg/kg, clonazepam 5 mg/kg, or same doses combined, then pentylenetetrazol 100 mg/kg i.p., mean ± SD

O=C1CN=C(c2ccccc2Cl)c2cc([N+](=O)[O-])ccc2N1 [clonazepam]
Duration of seizures [1, 4]: 25 ± 6 s
Latency to seizures [1, 4]: 203 ± 12 s
Dead animals <20′ ([1]; died within 20 minutes after pentylenetetrazol injection, n/10): 2/10
Dead animals <5 h ([1]; died within 5 hours after pentylenetetrazol injection, n/10): 4/10
Rats with MMS (n/tot) ([1]; major motor seizures, same treatment, pentylenetetrazol 100 mg/kg i.p.): 1/10
Rats with MCC (n/tot) ([1]; minor clonic contractions, same treatment, pentylenetetrazol 100 mg/kg i.p.): 3/10

C1CCc2nnnn2CC1 [pentylenetetrazol]
ED50 [2]: 70 to 75 mg/kg

CCCC(CCC)C(=O)[O-].[Na+] [sodium valproate]
effect of valproate alone at the dose used in the combination [3]: ineffective when taken alone
